In paper PMC3367934 (Molecular & Cellular Proteomics : MCP, 2012):

How the values were obtained:
[1] = immune sera mixing experiment; format: in vivo, mouse; settings: 6-week immune sera physically mixed 50:50
[2] = test system: antibodies in serum from dnaX-immunized mice; format: binding, mouse

| Substance | distinguishability in 50:50 mixed sera [1] | ability to adsorb the signal from immune sera [2] | dnaX-specific peptides reduced in intensity by adsorption ([2]; of the 210 dnaX-specific peptides, beads bearing dnaX protein) |
| --- | --- | --- | --- |
| PARYANANGRDLITLGIGSC | still distinguishable from the KLH-immunized mice | – | – |
| Transferrin: irrelevant human protein used to adsorb the immune sera | – | Only the dnaX protein could adsorb the signal | – |
| dnaX protein: recombinant dnaX protein produced in E. coli | – | Only the dnaX protein could adsorb the signal | 35 peptides |
